Common to all, as to assay type: binding
For one test, the target named is T1, FGF-R4 ECD (Homo sapiens, UniProt P22455).
T1 construct: DNA constructs for the extracellular domain (ECD) of human FGF-; HPC4 (C); made in house; host or cells: HEK 293-6E
T1 sequence (P22455 22-369 limits assumed): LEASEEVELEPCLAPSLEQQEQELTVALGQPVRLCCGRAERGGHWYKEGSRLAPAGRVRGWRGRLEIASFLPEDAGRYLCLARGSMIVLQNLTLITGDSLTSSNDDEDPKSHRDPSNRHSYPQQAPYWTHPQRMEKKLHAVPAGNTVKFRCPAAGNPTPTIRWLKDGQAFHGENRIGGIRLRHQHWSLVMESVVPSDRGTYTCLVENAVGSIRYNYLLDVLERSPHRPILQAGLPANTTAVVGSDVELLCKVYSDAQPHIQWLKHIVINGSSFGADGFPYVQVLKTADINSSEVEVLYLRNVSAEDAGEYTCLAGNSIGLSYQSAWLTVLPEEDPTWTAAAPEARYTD
The experiment in a line: single concentration BLI of crude peptides. The note with it: crude T18 selection 1 (1:1:1) peptides, single concentration BLI (Table S4); read-out: KD (4). Here is the method:
(§1) KD affinity binding measurements were obtained by biolayer interferometry (BLI) instruments (Fortebio Octet HTX, or Sartorius Octet RH16 using either 8 or 16 channel mode.
For single concentration binding experiments, 50 μM peptide stocks in folding buffer were diluted 1:50 in mRNA display selection buffer (PBS pH7.4 supplemented with 0.05% Tween-20 and 0.01% BSA) in either a 96 well black plate, or a 384 well tilted bottom microplate (ForteBio). Biotinylated FGF-R protein was loaded onto Streptavidin-functionalised biosensors (ForteBio) and immersed into ~1 μM peptide to obtain association kinetics curves. Dissociation kinetics curves were obtained by subsequent immersion of ligand-associated loaded sensors into a 1:50 dilution of folding buffer in mRNA display selection buffer. Fitted KD data was adjusted for concentration as determined by UPLC-CAD. […]

The target in the next test is T2, FGF-R1C ECD (Homo sapiens, UniProt P11362).
T2 sequence (P11362 22-376 limits assumed): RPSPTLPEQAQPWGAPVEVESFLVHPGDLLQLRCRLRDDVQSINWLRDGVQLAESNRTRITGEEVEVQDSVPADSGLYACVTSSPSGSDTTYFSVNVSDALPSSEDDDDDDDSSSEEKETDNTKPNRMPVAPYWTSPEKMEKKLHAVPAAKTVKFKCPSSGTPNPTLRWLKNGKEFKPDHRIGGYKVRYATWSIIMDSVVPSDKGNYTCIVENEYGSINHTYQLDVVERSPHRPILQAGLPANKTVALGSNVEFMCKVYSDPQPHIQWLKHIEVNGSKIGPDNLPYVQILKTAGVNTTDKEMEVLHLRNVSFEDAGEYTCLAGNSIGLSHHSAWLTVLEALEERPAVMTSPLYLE
The test can be described thus: biochemical. Details: DNA constructs for the extracellular domain (ECD) of human FGF-; HPC4 (C); made in house; host or cells: HEK 293-6E. Here is the method:
as §1
(§2) For single concentration binding experiments, 50 μM peptide stocks in folding buffer were diluted 1:50 in mRNA display selection buffer (PBS pH7.4 supplemented with 0.05% Tween-20 and 0.01% BSA) in either a 96 well black plate, or a 384 well tilted bottom microplate (ForteBio). Biotinylated FGF-R protein was loaded onto Streptavidin-functionalised biosensors (ForteBio) and immersed into ~1 μM peptide to obtain association kinetics curves. Dissociation kinetics curves were obtained by subsequent immersion of ligand-associated loaded sensors into a 1:50 dilution of folding buffer in mRNA display selection buffer. Fitted KD data was adjusted for concentration as determined by UPLC-CAD.
(§3) For accurate multi-concentration KD determination, dilution series of each peptide were made, and association and dissociation kinetics curves were obtained as above for each concentration to fit a multi-point KD binding model. Data collection and analysis was performed using the Octet Instrument Control […]
(§4) concentration assay kinetics curves shown in supplementary Figure S 19-24.

For a further test, the target named is T3, FGF-R3C ECD (Homo sapiens, UniProt P22607).
T3 sequence (P22607 23-375 limits assumed): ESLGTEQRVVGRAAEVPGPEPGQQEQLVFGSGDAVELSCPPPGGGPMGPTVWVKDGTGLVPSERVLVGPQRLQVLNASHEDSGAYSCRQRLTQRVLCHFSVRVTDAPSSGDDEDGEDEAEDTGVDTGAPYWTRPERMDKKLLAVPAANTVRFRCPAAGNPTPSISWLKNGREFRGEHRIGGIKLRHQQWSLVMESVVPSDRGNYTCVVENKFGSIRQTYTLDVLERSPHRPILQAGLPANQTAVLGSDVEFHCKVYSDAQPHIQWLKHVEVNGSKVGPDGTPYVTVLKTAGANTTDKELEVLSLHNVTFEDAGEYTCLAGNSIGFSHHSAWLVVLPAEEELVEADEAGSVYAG
The test can be described thus: biochemical. Details: DNA constructs for the extracellular domain (ECD) of human FGF-; HPC4 (C); made in house; host or cells: HEK 293-6E. The procedure:
as §1, §2, §3, §4

Positions of bridges follow the written chain, without caps; N, C: chain ends. Residues, ends and D or L forms follow the SMILES beside them.

In the case of `CSCC[C@H](NC(C)=O)C(=O)N[C@H]1CSSC[C@@H](C(=O)NCC(=O)N[C@@H](CO)C(=O)NCC(=O)N[C@@H](CO)C(=O)N[C@@H](CCC(=O)O)C(=O)N[C@@H](CCC(=O)O)C(=O)NCC(=O)N[C@@H](CO)C(=O)NCC(=O)N[C@@H](CO)C(=O)N[C@@H](CC(=O)O)C(=O)N[C@@H](Cc2ccc(O)cc2)C(=O)N[C@@H](CCCCN)C(=O)N[C@@H](CC(=O)O)C(=O)N[C@@H](CC(=O)O)C(=O)N[C@@H](CC(=O)O)C(=O)N[C@@H](CC(=O)O)C(=O)N[C@@H](CCCCN)C(N)=O)NC(=O)[C@H](CCCNC(=N)N)NC(=O)[C@H](CO)NC(=O)[C@H](Cc2c[nH]cn2)NC(=O)[C@H](CCCCN)NC(=O)[C@H](CC(C)C)NC(=O)[C@H](Cc2c[nH]c3ccccc23)NC(=O)[C@H](CC(C)C)NC(=O)[C@H](CCCCN)NC(=O)[C@H](Cc2ccc(O)cc2)NC(=O)[C@H](Cc2ccc(O)cc2)NC(=O)[C@H](C(C)C)NC(=O)[C@H](C)NC1=O` (Ac-MCAVYYKLWLKHSRCGSGSEEGSGSDYKDDDDK-NH2; disulfide 2-15), the values for the Kd on FGF-R4 ECD and at FGF-R1C ECD were 0.007 µM and > 10 µM, respectively.

In the case of `CC[C@H](C)[C@@H]1NC(=O)[C@H](CCC(=O)O)NC(=O)[C@H](CCCNC(=N)N)NC(=O)[C@@H](NC(=O)[C@H](CCSC)NC(C)=O)CSSC[C@@H](C(=O)NCC(=O)N[C@@H](CO)C(=O)NCC(=O)N[C@@H](CO)C(=O)N[C@@H](CC(=O)O)C(=O)N[C@@H](Cc2ccc(O)cc2)C(=O)N[C@@H](CCCCN)C(=O)N[C@@H](CC(=O)O)C(=O)N[C@@H](CC(=O)O)C(=O)N[C@@H](CC(=O)O)C(=O)N[C@@H](CC(=O)O)C(=O)N[C@@H](CCCCN)C(N)=O)NC(=O)[C@H](Cc2ccccc2)NC(=O)[C@H](C)NC(=O)[C@H](CCCNC(=N)N)NC(=O)[C@H](Cc2ccc(O)cc2)NC(=O)[C@H](CC(C)C)NC(=O)[C@H](CCC(N)=O)NC(=O)[C@H](Cc2c[nH]c3ccccc23)NC(=O)[C@H](Cc2ccc(O)cc2)NC(=O)[C@H](CCCNC(=N)N)NC1=O` (Ac-MCREIRYWQLYRAFCGSGSDYKDDDDK-NH2; disulfide 2-15), the Kd on FGF-R1C ECD and on FGF-R3C ECD was > 10 µM each time.

Take `CC[C@H](C)[C@@H]1NC(=O)CNC(=O)[C@H]([C@@H](C)O)NC(=O)[C@H](CO)NC(=O)[C@H]([C@@H](C)CC)NC(=O)[C@H](CC(N)=O)NC(=O)[C@H](CCCCN)NC(=O)[C@H](Cc2ccc(O)cc2)NC(=O)[C@@H](NC(=O)[C@H](CCSC)NC(C)=O)CSSC[C@@H](C(=O)NCC(=O)N[C@@H](CO)C(=O)NCC(=O)N[C@@H](CO)C(=O)N[C@@H](CC(=O)O)C(=O)N[C@@H](Cc2ccc(O)cc2)C(=O)N[C@@H](CCCCN)C(=O)N[C@@H](CC(=O)O)C(=O)N[C@@H](CC(=O)O)C(=O)N[C@@H](CC(=O)O)C(=O)N[C@@H](CC(=O)O)C(=O)N[C@@H](CCCCN)C(N)=O)NC(=O)[C@H](Cc2ccc(O)cc2)NC(=O)[C@H](CC(C)C)NC(=O)[C@H](Cc2ccccc2)NC1=O` (Ac-MCYKNISTGIFLYCGSGSDYKDDDDK-NH2; disulfide 2-14): the Kd on FGF-R1C ECD and on FGF-R3C ECD was > 10 µM each time.

Consider `CC[C@H](C)[C@@H]1NC(=O)[C@H](Cc2c[nH]cn2)NC(=O)[C@H](CCCNC(=N)N)NC(=O)[C@H](CCCCN)NC(=O)[C@@H](NC(=O)[C@H](CCSC)NC(C)=O)CSSC[C@@H](C(=O)NCC(=O)N[C@@H](CO)C(=O)NCC(=O)N[C@@H](CO)C(=O)N[C@@H](CCC(=O)O)C(=O)N[C@@H](CCC(=O)O)C(=O)NCC(=O)N[C@@H](CO)C(=O)NCC(=O)N[C@@H](CO)C(=O)N[C@@H](CC(=O)O)C(=O)N[C@@H](Cc2ccc(O)cc2)C(=O)N[C@@H](CCCCN)C(=O)N[C@@H](CC(=O)O)C(=O)N[C@@H](CC(=O)O)C(=O)N[C@@H](CC(=O)O)C(=O)N[C@@H](CC(=O)O)C(=O)N[C@@H](CCCCN)C(N)=O)NC(=O)[C@H](C(C)C)NC(=O)[C@H](Cc2ccc(O)cc2)NC(=O)[C@H](CC(C)C)NC(=O)[C@H](CCC(N)=O)NC(=O)[C@H](Cc2c[nH]c3ccccc23)NC(=O)[C@H](Cc2ccc(O)cc2)NC(=O)[C@H](CCCNC(=N)N)NC1=O` (Ac-MCKRHIRYWQLYVCGSGSEEGSGSDYKDDDDK-NH2; disulfide 2-14), for which the Kd at FGF-R1C ECD is 0.265 µM; on FGF-R3C ECD it was 0.838 µM.

On to `CC[C@H](C)[C@@H]1NC(=O)[C@H](CCC(=O)O)NC(=O)[C@H](Cc2ccc(O)cc2)NC(=O)[C@@H](NC(=O)[C@H](CCSC)NC(C)=O)CSSC[C@@H](C(=O)NCC(=O)N[C@@H](CO)C(=O)NCC(=O)N[C@@H](CO)C(=O)N[C@@H](CC(=O)O)C(=O)N[C@@H](Cc2ccc(O)cc2)C(=O)N[C@@H](CCCCN)C(=O)N[C@@H](CC(=O)O)C(=O)N[C@@H](CC(=O)O)C(=O)N[C@@H](CC(=O)O)C(=O)N[C@@H](CC(=O)O)C(=O)N[C@@H](CCCCN)C(N)=O)NC(=O)[C@H](C(C)C)NC(=O)[C@H](CCCNC(=N)N)NC(=O)[C@H](CCC(N)=O)NC(=O)[C@H](CC(C)C)NC(=O)[C@H](CCCCN)NC(=O)[C@H](Cc2ccc(O)cc2)NC(=O)[C@H](Cc2c[nH]c3ccccc23)NC(=O)[C@H]([C@@H](C)CC)NC1=O` (Ac-MCYEIIWYKLQRVCGSGSDYKDDDDK-NH2; disulfide 2-14), for which the Kd on FGF-R1C ECD and at FGF-R3C ECD was > 10 µM in each case.

Take `CC[C@H](C)[C@@H]1NC(=O)[C@H](Cc2c[nH]cn2)NC(=O)[C@@H](NC(=O)[C@H](CCSC)NC(C)=O)CSSC[C@@H](C(=O)NCC(=O)N[C@@H](CO)C(=O)NCC(=O)N[C@@H](CO)C(=O)N[C@@H](CC(=O)O)C(=O)N[C@@H](Cc2ccc(O)cc2)C(=O)N[C@@H](CCCCN)C(=O)N[C@@H](CC(=O)O)C(=O)N[C@@H](CC(=O)O)C(=O)N[C@@H](CC(=O)O)C(=O)N[C@@H](CC(=O)O)C(=O)N[C@@H](CCCCN)C(N)=O)NC(=O)[C@H](C(C)C)NC(=O)[C@H](Cc2ccc(O)cc2)NC(=O)[C@H](Cc2c[nH]cn2)NC(=O)[C@H](Cc2ccccc2)NC(=O)[C@H](CCC(N)=O)NC(=O)[C@H](CC(N)=O)NC(=O)[C@H](CC(N)=O)NC(=O)[C@H](Cc2ccccc2)NC(=O)[C@H](Cc2ccc(O)cc2)NC(=O)[C@H](Cc2c[nH]c3ccccc23)NC1=O` (Ac-MCHIWYFNNQFHYVCGSGSDYKDDDDK-NH2; disulfide 2-15): the Kd on FGF-R4 ECD is 0.006 µM; at FGF-R1C ECD, > 10 µM.

Broadly, the Kd is the concentration at which binding is half-saturated.

Source of the values: paper PMC10763615, “Identification and engineering of potent cyclic peptides with selective or promiscuous binding through biochemical profiling and bioinformatic data analysis” (RSC Chemical Biology, 2023).
